Laboratory results published in US20210391038A1, “SPECIFICALLY-SHAPED CRYSTAL OF COMPOUND AND METHOD FOR PRODUCING SAME” (TOWA PHARMACEUTICAL CO., LTD., priority 2018, published 2021).
Counter-ions that a name gives are not always drawn. Like-named read-outs stand apart in the source and are kept apart here.

Columns and labels:
Assay type in all cases: physicochemical
[1] = Particle size from SEM images (equivalent circle diameter, mean particle size, crystal size); settings: for equivalent circle diameter: SEM image, ImageJ, trihydrate
Procedure: “Equivalent circle diameter” in the present description is a diameter of a perfect circle corresponding to the area of individual particles in an image of particles taken by SEM, and is calculated from randomly selected 5 to 800 particles using image processing software ImageJ. The equivalent circle diameter of a spherulite obtained by the method of the present invention is preferably 25 μm or more, 30 μm or more, 35 μm or more, 40 μm or more, 45 μm or more, or 50 μm or more and 100 μm or less, 120 μm or less, 150 μm or less, 200 μm or less, 250 μm or less, 300 μm or less, 500 μm or less, or 1,000 μm or less. More preferably, the equivalent circle diameter is 25 to 500 μm or 30 to 300 μm.
(§1) The particle size distribution was measured in a dry manner using a spray particle size distribution analyzer AEROTRAC LDSA-SPR3500A manufactured by Microtrac Inc. The particle size distribution in Examples 2 and 7 was measured in a dry manner using a laser diffraction particle size distribution measurement MASTERSIZER 3000 manufactured by Malvern Panalytical Ltd. SEM images were measured using a scanning electron microscope JSM-IT100 manufactured by JEOL Ltd. Light microscope images were measured using an upright microscope BX53M manufactured by Olympus Corporation and a microscope digital camera DP74 manufactured by Olympus Corporation. Images for measuring the number of particles were obtained by a scanner GT-X830 manufactured by SEIKO EPSON CORPORATION. The powder X-ray diffraction (XRD) was measured using a desktop X-ray diffraction device MiniFlex300 manufactured by Rigaku Corporation. The specific surface area was measured by the BET fluid process (gas used: pure nitrogen) using a fully automatic specific surface area measuring device Macsorb HM-1208 manufactured by Mountech Co., Ltd. The moisture content was measured using a trace moisture measuring device AQ-2200 manufactured by […] SANGYO Co., Ltd. The dissolution profile was measured using μDISS Profiler manufactured by Pion Inc. Centrifugal classification was performed using a high-efficiency precision forced air classifier Lab Calssiel N-01 manufactured by SEISHIN […] Co., Ltd. Image analysis was performed using image processing software ImageJ developed by the National Institute of Health (NIH). The particle strength was measured using a particle hardness measuring device NEW GRANO manufactured by OKADA SEIKO CO., LTD. The true density was measured using a dry automatic densimeter AccuPyc II 1340-10CC manufactured by Shimadzu Corporation. The purity of a compound was measured by a high performance liquid chromatograph (LC-20A) manufactured by Shimadzu Corporation.
The spherulite of azithromycin monohydrate produced in Example 12 was cut, and the section was observed by SEM (FIG. 4). The crystal size at the outer edge was 5 to 10 μm, while the crystal size at the center was 0.2 to 1 μm.

[2] = Sphericity from SEM images (ImageJ); parameters: key: 1 = true sphere; closer to 1 = more spherical; mean of ≥5 particles; settings: for sphericity of the spherulite: SEM image analysis, mean of particles
From the text: In the present description, “spherulite” means a crystal aggregate (polycrystal) which has a radial or concentric thin layered structure and has a spherical outer shape. Whether the crystal obtained by the method of the present invention is a spherulite or not can be determined, for example, by observing the outer shape of the crystal using SEM. For example, it can be discriminated by cutting the crystal aggregate and observing the internal structure thereof using SEM. The sphericity of the spherulite obtained by the method of the present invention is usually 0.60 or more, preferably 0.70 or more, more preferably 0.80 or more, particularly preferably 0.90 or more, and most preferably 0.95 or more. The sphericity can be calculated by the following method.
When an image of particles taken by SEM is analyzed using image processing software ImageJ, a coordinate group representing the position of pixels forming the outline of a particle is obtained. The length of the coordinate group is defined as N, and one pixel coordinate of each outline is defined as p[i] (1≤i≤N). The angle between a straight line l(k) connecting two points p[k] and p[k+N/D] and a straight line m(k) connecting two points p[k+N/D] and p[k+2N/D] is defined as θ(k) (−180°<θ<180°) (1≤k≤N, 1≤D≤N). D corresponds to the number of partitions of the outline. When N/D is not a natural number, the value is defined as the quotient obtained by dividing N by D. By calculating this angle with k=1 to N, N pieces of θ value can be obtained.
When the particle is a true sphere, θ(k) is 360/D, and the closer the particle is to a true sphere, the closer θ(k) is to this value. The error between θ(k) and the true value 360/D is evaluated by the root-mean-square error (RMSE) of the following formula:
Using the RMSE value of when D is 10 (θ(k)=36°), the sphericity is defined by the following formula: […]
The sphericity is 1 in a true sphere, and the closer the particle is to a true sphere, the closer the sphericity is to 1. Meanwhile, the sphericity of an ellipse whose long axis is infinitely long is zero. The sphericity is measured for five or more particles to calculate the mean. This mean is defined as the sphericity of each sample (see FIGS. 42 and 43).

[3] = Particle size distribution (d50, sharpness index); parameters: key to sharpness index of the crystal thus obtained / sharpness index of the fine powders: calculated by formula from d10, d50, d90; 1.0 = most uniform particle size; settings: for d50: samples of dissolution test (Table 4)
From the text: d10 in the present description is a value obtained from a particle size distribution analyzer, and represents a particle size of a particle corresponding to 10% of accumulation from the smaller particle side in the particle size distribution based on the volume.
d50 in the present description is a value obtained from a particle size distribution analyzer, and represents a particle size of a particle corresponding to 50% of accumulation from the smaller particle side in the particle size distribution based on the volume.
“Sharpness index” in the present description is an index representing the uniformity of a particle size of a particle in a powder, and a sharpness index of 1.0 represents a powder having the most uniform particle size. The closer the sharpness index is to 1.0, the more the particle size of the powder is uniform. Specifically, the sharpness index represents a value calculated using the following formula from the values of d10, d50, and d90 measured by a particle size distribution analyzer:
Images for measuring the number of particles were obtained by a scanner GT-X830 manufactured by SEIKO EPSON CORPORATION. The powder X-ray diffraction (XRD) was measured using a desktop X-ray diffraction device MiniFlex300 manufactured by Rigaku Corporation. […] The particle strength was measured using a particle hardness measuring device NEW GRANO manufactured by OKADA SEIKO CO., LTD. […] The purity of a compound was measured by a high performance liquid chromatograph (LC-20A) manufactured by Shimadzu Corporation.

Particle strength = experiment: Particle strength
From the text: Furthermore, a polycrystal with a high particle density also has a high particle strength. When a polycrystal, particularly a spherulite, is used as a raw material for production of drugs, a problem occurs in which wear in a formulation step leads to deterioration of yield or quality or both, and a polycrystal with a high particle strength has an advantage in this regard. When a specifically-shaped crystal obtained by the present invention is a polycrystal, the particle strength is preferably 1.0 MPa or more, more preferably 1.5 MPa or more, still more preferably 2.0 MPa, yet more preferably 2.5 MPa or more, and particularly preferably 3.0 MPa or more. The particle strength is calculated by measuring the force at which a particle breaks when load is applied to one particle and the particle size. Specifically, the particle strength is calculated by the following formula in accordance with JIS R 1639-5. Examples of a measuring device include a particle hardness measuring device NEW GRANO manufactured by OKADA SEIKO CO., LTD. and a micro compression testing machine MCT manufactured by Shimadzu Corporation. […]
The particle strength of the spherulite of esomeprazole magnesium trihydrate obtained in Example 2, the spherulite of esomeprazole magnesium trihydrate obtained in Example 5, and the spherulite of esomeprazole magnesium trihydrate obtained in Example 6 was measured.

[4] = Specific surface area (BET fluid process); settings: nitrogen, trihydrate
Procedure: as §1, with “Images for measuring the number of particles were obtained by a scanner GT-X830 manufactured by SEIKO EPSON CORPORATION.” left out, “Co., Ltd. Image analysis was performed using image processing software ImageJ developed by the National Institute of Health (NIH). The particle strength was measured using a particle hardness measuring device NEW GRANO manufactured by OKADA SEIKO CO., LTD. The true density was measured using a dry automatic densimeter AccuPyc II 1340-10CC manufactured by Shimadzu Corporation. The purity of a compound was measured by a high performance liquid chromatograph (LC-20A) manufactured by Shimadzu Corporation.” left out

[5] = Measurement of dissolution profile (μDISS Profiler); settings: 30 mg in 10 mL phosphate buffer pH 6.8, 37° C., 300 rpm
Procedure: The dissolution profile is described by the zero-order model, the first-order model, the Weibull model, the Higuchi model, the Hixson-Crowell model, the Korsmeyer-Peppas model, the Baker-Lonsdale model, the Hopfenberg model, and the like. The Weibull model is represented by the following formula: […]
The particle size distribution was measured in a dry manner using a spray particle size distribution analyzer AEROTRAC LDSA-SPR3500A manufactured by Microtrac Inc. The particle size distribution in Examples 2 and 7 was measured in a dry manner using a laser diffraction particle size distribution measurement MASTERSIZER 3000 manufactured by Malvern Panalytical Ltd. SEM images were measured using a scanning electron microscope JSM-IT100 manufactured by JEOL Ltd. Light microscope images were measured using an upright microscope BX53M manufactured by Olympus Corporation and a microscope digital camera DP74 manufactured by Olympus Corporation. […] The powder X-ray diffraction (XRD) was measured using a desktop X-ray diffraction device MiniFlex300 manufactured by Rigaku Corporation. The specific surface area was measured by the BET fluid process (gas used: pure nitrogen) using a fully automatic specific surface area measuring device Macsorb HM-1208 manufactured by Mountech Co., Ltd. The moisture content was measured using a trace moisture measuring device AQ-2200 manufactured by […] […]

[6] = calculated from d10, d50, d90, trihydrate
[7] = dry particle size distribution, volume based, trihydrate

SMILES: COc1ccc2[n-]c([S@@+]([O-])Cc3ncc(C)c(OC)c3C)nc2c1.COc1ccc2[n-]c([S@@+]([O-])Cc3ncc(C)c(OC)c3C)nc2c1.O.O.O.[Mg+2] [Example 3, esomeprazole magnesium trihydrate]
- equivalent circle diameter [1]: 58±7 μm
- sphericity of the spherulite ([2]; trihydrate): 0.97±0.01

SMILES: COc1ccc2[n-]c([S@@+]([O-])Cc3ncc(C)c(OC)c3C)nc2c1.COc1ccc2[n-]c([S@@+]([O-])Cc3ncc(C)c(OC)c3C)nc2c1.O.O.O.[Mg+2] [Example 4, esomeprazole magnesium trihydrate]
- equivalent circle diameter [1]: 183±8 μm
- sphericity of the spherulite ([2]; trihydrate): 0.93±0.02

SMILES: COc1ccc2[n-]c([S@@+]([O-])Cc3ncc(C)c(OC)c3C)nc2c1.COc1ccc2[n-]c([S@@+]([O-])Cc3ncc(C)c(OC)c3C)nc2c1.O.O.O.[Mg+2] [Example 5, esomeprazole magnesium trihydrate]
- sharpness index of the crystal thus obtained [3, 6]: 1.4
- d50 of the crystal thus obtained [3, 7]: 149.9 μm
- sphericity of the spherulite ([2]; trihydrate): 0.89±0.05
- Particle strength (Particle strength): 2.3 ± 0.4 MPa

SMILES: COc1ccc2[n-]c([S@@+]([O-])Cc3ncc(C)c(OC)c3C)nc2c1.COc1ccc2[n-]c([S@@+]([O-])Cc3ncc(C)c(OC)c3C)nc2c1.O.O.O.[Mg+2] [Example 6, esomeprazole magnesium trihydrate]
- d50 of the crystal thus obtained [3]: 91.5
- sharpness index of the crystal thus obtained [3]: 1.45
- sphericity of the spherulite ([2]; trihydrate): 0.96±0.01
- Particle strength (Particle strength; trihydrate): 2.9 ± 0.5 MPa

SMILES: COc1ccc2[n-]c([S@@+]([O-])Cc3ncc(C)c(OC)c3C)nc2c1.COc1ccc2[n-]c([S@@+]([O-])Cc3ncc(C)c(OC)c3C)nc2c1.O.O.O.[Mg+2] [Example 8(1), esomeprazole magnesium trihydrate]
- sharpness index of the crystal thus obtained [3, 6]: 2.2
- d50 of the crystal thus obtained [3, 7]: 33.0 μm
- d50 ([3]; trihydrate): 33.0 μm
- Specific surface area [4]: 22.6 m^2/g
- sphericity of the spherulite ([2]; trihydrate): 0.95±0.03
- dissolution compared with the non-spherulite [5]: more rapid dissolution

SMILES: Cc1ccccc1C(=O)Nc1ccc(C(=O)N2CCCC(O)c3cc(Cl)ccc32)c(C)c1 (stereo not drawn) [Example 28, tolvaptan]
- mean particle size [1]: 145 μm
- sphericity of the spherulite [2]: 0.94±0.02

SMILES: COc1cccc(C2(O)CCCCC2CN(C)C)c1 (stereo not drawn) [Example 29, tramadol hydrochloride]
- mean particle size [1]: 319 μm
- sphericity of the spherulite [2]: 0.90±0.08

SMILES: CN(C)CC/C=C1/c2ccccc2COc2ccc(CC(=O)O)cc21 [Example 31, olopatadine]
- mean particle size [1]: 167 μm
- sphericity of the spherulite [2]: 0.96±0.02

SMILES: COc1ccc2[n-]c([S@@+]([O-])Cc3ncc(C)c(OC)c3C)nc2c1.COc1ccc2[n-]c([S@@+]([O-])Cc3ncc(C)c(OC)c3C)nc2c1.O.O.O.[Mg+2] [Ground product of non-spherulite, esomeprazole magnesium trihydrate]
- d50 ([3]; trihydrate): 5.1 μm
- Specific surface area [4]: 44.0 m^2/g
- sphericity of the non-spherulite ([2]; non-spherulite crystals, trihydrate): 0.45±0.23
